Data: patent US9527856B2, “Oxindole compounds carrying a CO-bound spiro substituent and use thereof for treating vasopressin-related diseases” (AbbVie Deutschland GmbH & Co. KG, priority 2014, dated 2016)

Columns and labels:
[1] = molecular target: T1, human vasopressin V1b receptor (Homo sapiens, UniProt P47901); assay: biochemical; conditions: Ki(h-V1b)* [nM], CHO-K1 cell membranes, displacement of 3H-AVP
T1 sequence (P47901 1-424): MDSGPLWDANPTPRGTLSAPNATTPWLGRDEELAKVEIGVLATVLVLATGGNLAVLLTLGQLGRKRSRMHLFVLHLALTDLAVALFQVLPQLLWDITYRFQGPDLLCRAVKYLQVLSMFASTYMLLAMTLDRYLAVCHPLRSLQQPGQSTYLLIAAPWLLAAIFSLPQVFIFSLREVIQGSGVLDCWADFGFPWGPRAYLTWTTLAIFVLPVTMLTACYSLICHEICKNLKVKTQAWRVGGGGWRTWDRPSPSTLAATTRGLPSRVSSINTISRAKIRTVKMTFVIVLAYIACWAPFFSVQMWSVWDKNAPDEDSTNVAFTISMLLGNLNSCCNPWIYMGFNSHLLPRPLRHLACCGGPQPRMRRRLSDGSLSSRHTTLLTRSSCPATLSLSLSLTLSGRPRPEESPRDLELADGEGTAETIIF

[2] = molecular target: human vasopressin V1a receptor (Homo sapiens, UniProt P37288); assay: Vasopressin V1a receptor binding assay; conditions: selectivity for human V1b over human V1a, quotient of binding constants
Chain of human vasopressin V1a receptor (P37288 whole entry): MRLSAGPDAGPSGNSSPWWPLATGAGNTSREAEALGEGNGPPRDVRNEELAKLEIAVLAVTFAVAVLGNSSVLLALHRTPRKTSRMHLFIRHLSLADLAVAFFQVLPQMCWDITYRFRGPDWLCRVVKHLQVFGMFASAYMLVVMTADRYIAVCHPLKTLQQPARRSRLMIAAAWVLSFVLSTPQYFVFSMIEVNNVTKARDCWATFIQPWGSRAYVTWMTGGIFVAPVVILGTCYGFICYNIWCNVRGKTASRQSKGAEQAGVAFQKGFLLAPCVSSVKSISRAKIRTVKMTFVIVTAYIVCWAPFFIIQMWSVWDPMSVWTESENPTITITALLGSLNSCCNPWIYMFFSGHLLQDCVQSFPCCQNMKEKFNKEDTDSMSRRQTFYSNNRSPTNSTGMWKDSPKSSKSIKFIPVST

| Structure (SMILES) | Ki [1] [nM] | Ki(h-V1a)/Ki(h-V1b) [2] |
| --- | --- | --- |
| CCOc1ncccc1C1(NC(=O)N2CC3(C2)CN(C2CCN(C(C)C)CC2)C3)C(=O)N(S(=O)(=O)c2ccc(OC)cc2OC)c2ccc(C#N)cc21 (racemic) [Example 22, (±)-N-[5-Cyano-1-(2,4-dimethoxyphenyl)sulfonyl-3-(2-ethoxy-3-pyridyl)-2-oxo-indolin-3-yl]-2-(1-isopropyl-4-piperidyl)-2,6-diazaspiro[3.3]heptane-6-carboxamide] | 1 to 10 | +++ (>75) |
| CCOc1ncccc1[C@]1(NC(=O)N2CC3(CN(CCN4CCOCC4)C3)C2)C(=O)N(S(=O)(=O)c2ccc(OC)cc2)c2ccc(C#N)cc21 [Example 1, N-[(3S)-5-Cyano-3-(2-ethoxy-3-pyridyl)-1-(4-methoxyphenyl)sulfonyl-2-oxo-indolin-3-yl]-2-(2-morpholinoethyl)-2,6-diazaspiro[3.3]heptane-6-carboxamide] | 1 to 10 | +++ (>75) |
| CCOc1ncccc1[C@]1(NC(=O)N2CC3(CN(CCCN4CCOCC4)C3)C2)C(=O)N(S(=O)(=O)c2ccc(OC)cc2)c2ccc(C#N)cc21 [Example 2, N-[(3S)-5-Cyano-3-(2-ethoxy-3-pyridyl)-1-(4-methoxyphenyl)sulfonyl-2-oxo-indolin-3-yl]-2-(3-morpholinopropyl)-2,6-diazaspiro[3.3]heptane-6-carboxamide] | 10 to 100 | +++ (>75) |
| CCOc1ncccc1[C@]1(NC(=O)N2CC3(CN(CCN4CCOCC4)C3)C2)C(=O)N(S(=O)(=O)c2ccc(OC)cn2)c2ccc(C#N)cc21 [Example 4, N-[(3S)-5-Cyano-3-(2-ethoxy-3-pyridyl)-1-[(5-methoxy-2-pyridyl)sulfonyl]-2-oxo-indolin-3-yl]-2-(2-morpholinoethyl)-2,6-diazaspiro[3.3]heptane-6-carboxamide] | 1 to 10 | +++ (>75) |
| CCOc1ncccc1[C@]1(NC(=O)N2CC3(CN(CCN4CCOCC4)C3)C2)C(=O)N(S(=O)(=O)c2ccc(C#N)cc2)c2ccc(C#N)cc21 [Example 5, N-[(3S)-5-cyano-1-(4-cyanophenyl)sulfonyl-3-(2-ethoxy-3-pyridyl)-2-oxo-indolin-3-yl]-2-(2-morpholinoethyl)-2,6-diazaspiro[3.3]heptane-6-carboxamide] | 10 to 100 | +++ (>75) |
| CCOc1ncccc1C1(NC(=O)C2CCC3(CC2)CCN(C2CCNCC2)CC3)C(=O)N(S(=O)(=O)c2ccc(OC)cc2OC)c2ccc(C#N)cc21 (centres unmarked) [Example 47, N-(5-Cyano-1-(2,4-dimethoxyphenylsulfonyl)-3-(2-ethoxypyridin-3-yl)-2-oxoindolin-3-yl)-3-(piperidin-4-yl)-3-azaspiro[5.5]undecane-9-carboxamide 2,2,2-trifluoroacetate] | 1 to 10 | – |
| CCOc1ncccc1C1(NC(=O)C2CC3(C2)CC(N2CC4(CNC4)C2)C3)C(=O)N(S(=O)(=O)c2ccc(OC)cc2OC)c2ccc(C#N)cc21 (centres unmarked) [Example 48, N-(5-Cyano-1-(2,4-dimethoxyphenylsulfonyl)-3-(2-ethoxypyridin-3-yl)-2-oxoindolin-3-yl)-6-(2,6-diazaspiro[3.3]heptan-2-yl)spiro[3.3]heptane-2-carboxamide 2,2,2-trifluoroacetate] | 1 to 10 | – |
| CCOc1ncccc1C1(NC(=O)N2CCC3(CC2)CN(C2CCNCC2)C3)C(=O)N(S(=O)(=O)c2ccc(OC)cc2OC)c2ccc(C#N)cc21 (centres unmarked) [Example 50, N-(5-Cyano-1-(2,4-dimethoxyphenylsulfonyl)-3-(2-ethoxypyridin-3-yl)-2-oxoindolin-3-yl)-2-(piperidin-4-yl)-2,7-diazaspiro[3.5]nonane-7-carboxamide bis-2,2,2-trifluoroacetate] | 10 to 100 | – |
| CCOc1ncccc1C1(NC(=O)N2CCC3(CC2)CNC3)C(=O)N(S(=O)(=O)c2ccc(OC)cc2OC)c2ccc(C#N)cc21 (centres unmarked) [Example 51, N-(5-Cyano-1-(2,4-dimethoxyphenylsulfonyl)-3-(2-ethoxypyridin-3-yl)-2-oxoindolin-3-yl)-2,7-diazaspiro[3.5]nonane-7-carboxamide 2,2,2-trifluoroacetate] | 10 to 100 | – |
| CCOc1ncccc1C1(NC(=O)C2CCC3(CCNCC3)CC2)C(=O)N(S(=O)(=O)c2ccc(OC)cc2OC)c2ccc(C#N)cc21 (centres unmarked) [Example 52, N-(5-Cyano-1-(2,4-dimethoxyphenylsulfonyl)-3-(2-ethoxypyridin-3-yl)-2-oxoindolin-3-yl)-3-azaspiro[5.5]undecane-9-carboxamide 2,2,2-trifluoroacetate] | 1 to 10 | – |
| CCOc1ncccc1C1(NC(=O)N2CCC3(CCN(C)CC3)CC2)C(=O)N(S(=O)(=O)c2ccc(OC)cc2OC)c2ccc(C#N)cc21 (centres unmarked) [Example 53, N-(5-Cyano-1-(2,4-dimethoxyphenylsulfonyl)-3-(2-ethoxypyridin-3-yl)-2-oxoindolin-3-yl)-9-methyl-3,9-diazaspiro[5.5]undecane-3-carboxamide 2,2,2-trifluoroacetate] | 10 to 100 | – |
| CCOc1ncccc1C1(NC(=O)C2CC3(C2)CC(N2CCN(CC)CC2)C3)C(=O)N(S(=O)(=O)c2ccc(OC)cc2OC)c2ccc(C#N)cc21 (centres unmarked) [Example 54, N-(5-Cyano-1-(2,4-dimethoxyphenylsulfonyl)-3-(2-ethoxypyridin-3-yl)-2-oxoindolin-3-yl)-6-(4-ethylpiperazin-1-yl)spiro[3.3]heptane-2-carboxamide 2,2,2-trifluoroacetate] | < 1 | – |
| CCOc1ncccc1C1(NC(=O)N2CC3(CCN(C)CC3)C2)C(=O)N(S(=O)(=O)c2ccc(OC)cc2OC)c2ccc(C#N)cc21 (centres unmarked) [Example 55, N-(5-Cyano-1-(2,4-dimethoxyphenylsulfonyl)-3-(2-ethoxypyridin-3-yl)-2-oxoindolin-3-yl)-7-methyl-2,7-diazaspiro[3.5]nonane-2-carboxamide 2,2,2-trifluoroacetate] | 10 to 100 | – |
| CCOc1ncccc1C1(NC(=O)N2CCC3(CCN(CC)CC3)CC2)C(=O)N(S(=O)(=O)c2ccc(OC)cc2OC)c2ccc(C#N)cc21 (centres unmarked) [Example 56, N-(5-Cyano-1-(2,4-dimethoxyphenylsulfonyl)-3-(2-ethoxypyridin-3-yl)-2-oxoindolin-3-yl)-9-ethyl-3,9-diazaspiro[5.5]undecane-3-carboxamide 2,2,2-trifluoroacetate] | 10 to 100 | – |

More lines, now with the values ahead:

| Ki [1] [nM] | Ki(h-V1a)/Ki(h-V1b) [2] | Structure (SMILES) |
| --- | --- | --- |
| 1 to 10 | ++ (25-75) | CCOc1ncccc1C1(CC(=O)N2CC3(CN(CCN4CCOCC4)C3)C2)C(=O)N(S(=O)(=O)c2ccc(OC)cc2)c2ccc(C#N)cc21 (racemic) [Example 20, 3-(2-Ethoxy-3-pyridyl)-1-(4-methoxyphenyl)sulfonyl-3-[2-[2-(2-morpholinoethyl)-2,6-diazaspiro[3.3]heptan-6-yl]-2-oxo-ethyl]-2-oxo-indoline-5-carbonitrile] |
| 1 to 10 | ++ (25-75) | CCOc1ncccc1C1(CC(=O)N2CC3(CN(CCN4CCOCC4)C3)C2)C(=O)N(S(=O)(=O)c2ccc(OC)cc2)c2ccc(C#N)cc21 (single isomer, unassigned) [Example 20A, 3-(2-Ethoxy-3-pyridyl)-1-(4-methoxyphenyl)sulfonyl-3-[2-[2-(2-morpholinoethyl)-2,6-diazaspiro[3.3]heptan-6-yl]-2-oxo-ethyl]-2-oxo-indoline-5-carbonitrile] |
| < 1 | +++ (>75) | CCOc1ncccc1[C@]1(NC(=O)N2CC3(CN(CCN4CCOCC4)C3)C2)C(=O)N(S(=O)(=O)c2ccc(OC)cc2)c2ccc(C#N)cc21.O=C(O)C(F)(F)F [Example 1B, N-[(3S)-5-cyano-3-(2-ethoxy-3-pyridyl)-1-(4-methoxyphenyl)sulfonyl-2-oxo-indolin-3-yl]-2-(2-morpholinoethyl)-2,6-diazaspiro[3.3]heptane-6-carboxamide; 2,2,2-trifluoroacetic acid] |
| – | ++ (25-75) | CCOc1ncccc1[C@]1(NC(=O)N2CC3(CN(CCN4CCOCC4)C3)C2)C(=O)N(S(=O)(=O)c2ccc(C)cc2)c2ccc(C#N)cc21 [Example 16, N-[(3S)-5-Cyano-3-(2-ethoxy-3-pyridyl)-2-oxo-1-(p-tolylsulfonyl)indolin-3-yl]-2-(2-morpholinoethyl)-2,6-diazaspiro[3.3]heptane-6-carboxamide] |
| 10 to 100 | – | CCOc1ncccc1[C@]1(NC(=O)N2CC3(C2)CN(C2COC2)C3)C(=O)N(S(=O)(=O)c2ccc(F)cc2)c2ccc(C#N)cc21 [Example 31, N-[(3S)-5-Cyano-3-(2-ethoxy-3-pyridyl)-1-(4-fluorophenyl)sulfonyl-2-oxo-indolin-3-yl]-2-(oxetan-3-yl)-2,6-diazaspiro[3.3]heptane-6-carboxamide] |
| 10 to 100 | – | CCOc1ncccc1[C@]1(NC(=O)C2CC3(CNC3)C2)C(=O)N(S(=O)(=O)c2ccc(OC)cc2)c2ccc(C#N)cc21 [Example 44, N-[(3S)-5-Cyano-3-(2-ethoxy-3-pyridyl)-1-(4-methoxyphenyl)sulfonyl-2-oxo-indolin-3-yl]-6-azaspiro[3.3]heptane-2-carboxamide] |
| 10 to 100 | – | CCOc1ncccc1C1(NC(=O)C2CC3(CNC3)C2)C(=O)N(S(=O)(=O)c2ccc(OC)cc2OC)c2ccc(C#N)cc21 (centres unmarked) [Example 57, N-(5-Cyano-1-(2,4-dimethoxyphenylsulfonyl)-3-(2-ethoxypyridin-3-yl)-2-oxoindolin-3-yl)-2-azaspiro[3.3]heptane-6-carboxamide 2,2,2-trifluoroacetate] |
